According to patent US20190375708A1 (VenatoRx Pharmaceuticals, Inc., priority 2018, published 2019):
Where two headings read alike, the source gives them in different places.

Tests used:
[1] = tested on: HBV replication in HepAD38 cells; assay: Anti-HBV replication assay in HepAD38 cells (QPCR of extracellular HBV DNA); assay type: cell-based, HBV (genotype D, serotype ayw); settings: 7 days incubation, extracellular HBV DNA by QPCR, read-out: Anti-HBV EC50
How it was run: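 EC50 values reflect 50% reduction of extracellular HBV DNA, measured by QPCR after 7-day treatment of tetracycline-deprived HepAD38 cells with compound […].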

HepG2 cells = assay: In vitro cytotoxicity assay (MTT cell viability) in HepG2 cells; assay type: cell-based, human
How it was run: (§1)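 HepG2 seeded overnight, then 7-day compound exposure (30 μM–1.0 nM, half-log steps), 37 °C. MTT 3-4 h, DMSO solubilization, A492. % of vehicle → CC50, 4-PL fit.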

HBV = settings: Phase 1b clinical trial, 600 mg bid dosing for 29 days; cited from earlier work
[2] = In vitro cytotoxicity assay (MTT cell viability) in HepG2 cells; assay type: cell-based, human; settings: human
How it was run: as §1

[3] = HepG2 cells, MTT cell viability, 7-day incubation, tested 30 μM to 1.0 nM, read-out: HepG2 CC50

Molecule	EC50 [1] [µM]	CC50 (HepG2 cells; [3]) [µM]	EC50 ([1]; Hepatitis B virus, 168 h) [µM]	CC50 at 7 days [2] [µM]	also measured
Cc1cc(NC(=O)c2c(Cl)c(C(=O)C(=O)NC3(CO)CC3)n3c2CCCC3)ccc1F [Example 491, 2-chloro-N-(4-fluoro-3-methylphenyl)-3-(2-((1-(hydroxymethyl)cyclopropyrl)amino)-2-oxoacetyl)-5,6,7,8-tetrahydroindolizine-1-carboxamide]	< 0.05				CC50 (HepG2 cells): > 30 µM
Cc1c(C(=O)Nc2ccc(F)nc2)c(C)n(C)c1C(=O)C(=O)NC12C[C@@H]3C[C@@H](CC(O)(C3)C1)C2 [Example 16, N-(6-fluoropyridin-3-yl)-5-(2-(((1r,3s,5R,7S)-3-hydroxyadamantan-1-yl)amino)-2-oxoacetyl)-1,2,4-trimethyl-1H-pyrrole-3-carboxamide]	0.05 to 0.499	5 to 30			
Cc1cc(NC(=O)c2c(C)c(C(=O)C3=Nc4ccccc4B(O)O3)n(C)c2C)ccc1F [Example 256, N-(4-fluoro-3-methylphenyl)-5-(1-hydroxy-1H-enxo[c][1,5,2]oxazaborinine-3-carbonyl)-1,2,4-trimethyl-1H-pyrrole-3-carboxamide]	0.05 to 0.499	5 to 30			
Cc1c(C(=O)Nc2ccc(F)nc2)c(C)n(C)c1C(=O)C(=O)N[C@]12C[C@@H]3C[C@@H](C[C@H]1C3)C2 [Example 19, N-(6-fluoropyridin-3-yl)-5-(2-(((2R,3as,5S,6as)-hexahydro-2,5-methanopentalen-3a(1H)-yl)amino)-2-oxoacetyl)-1,2,4-trimethyl-1H-pyrrole-3-carboxamide]	< 0.05	5 to 30			
(S)-4-chloro-N-(4-fluoro-3- methylphenyl)-5-(2-((1- hydroxybutan-2-yl)amino0-2- oxoacetyl)-1,2-dimethyl-1H- pyrrole-3-carboxamide [Example 368]	0.05 to 0.499	> 30			
O=C(Nc1cc(F)c(F)c(F)c1)c1ccc(F)c(S(=O)(=O)N2CCC(O)CC2)c1 [NVR 3-778]					reduction in HBV DNA (HBV): −1.7 log 10
Cc1cc(NC(=O)c2c(C)c(C(=O)C(=O)N[C@@H]3[C@@H]4C[C@@H]5C[C@H]3C[C@@](O)(C5)C4)n(C)c2C)ccc1F [Example 74, N-(4-fluoro-3-methylphenyl)-5-(2-(((1R,2s,3S,5s,7s)-5-hydroxyadamantan-2-yl)amino)-2-oxoacetyl)-1,2,4-trimethyl-1H-pyrrole-3-carboxamide]	< 0.05	> 30			
(S)-2-chloro-N-(4-fluoro-3- methylphenyl)-5-(2-((1- hydroxybutan-2-yl)amino)-2- oxoacetyl)-14-dimethyl-1H- pyrrole-3-carboxamide [Example 389]	> 1	5 to 30			
N-(4-fluoro-3-methylphenyl)-1,2,4-trimethyl-5-(2-(((1s,4s)-4-morpholinocyclohexyl)amino)-2-oxoacetyl)-1H-pyrrole-3-carboxamide [Example 265]	0.05 to 0.499	> 30			
O=C(NC1(CO)CCC1)C(=O)c1c(Cl)c(C(=O)Nc2ccc(F)c(F)c2)c2n1CCC2 [Example 558, 6-chloro-N-(3,4-difluorophenyl)-5-(2-((1-(hydroxymethyl)cyclobutyl)amino)-2-oxoacetyl)-2,3-dihydro-1H-pyrrolizine-7-carboxamide]			< 0.05	> 30	
Cc1cc(NC(=O)c2cc(C(=O)C(=O)NC(C)(C)C)n3c2CN(S(C)(=O)=O)CC3)ccc1F [Example 589, 6-(2-(tert-butylamino)-2-oxoacetyl)-N-(4-fluoro-3-methylphenyl)-2-(methylsulfonyl)-1,2,3,4-tetrahydropyrrolo[1,2-a]pyrazine-8-carboxamide]			0.5 to 1	> 30	
C#CCNC(=O)C(=O)c1c(C)c(C(=O)Nc2ccc(F)c(C)c2)c(C)n1C [Example 275, N-(4-fluoro-3-methylphenyl)-1,2,4-trimethyl-5-(2-oxo-2-(prop-2-yn-1-ylamino)acetyl)-1H-pyrrole-3-carboxamide]			< 0.05	> 30	
Cc1cc(NC(=O)c2c(C)c(C(=O)C(=O)NC(C)(C)C(=O)N3CCC(O)CC3)n(C)c2C)ccc1F [Example 597, N-(4-fluoro-3-methylphenyl)-5-(2-((1-(4-hydroxypiperidin-1-yl)-2-methyl-1-oxopropan-2-yl)amino)-2-oxoacetyl)-1,2,4-trimethyl-1H-pyrrole-3-carboxamide]			< 0.05	> 30	
Cc1cc(NC(=O)c2c(C)c(C(=O)C(=O)N[C@]3(C)C[C@@H](O)C3)n(C)c2C)ccc1F [Example 619]			< 0.05	> 30	
Cc1cc(NC(=O)c2c(C)c(C(=O)C(=O)NC3CCN(c4cccnn4)CC3)n(C)c2C)ccc1F [Example 660, N-(4-fluoro-3-methylphenyl)-1,2,4-trimethyl-5-(2-oxo-2-((1-(pyridazin-3-yl)piperidin-4-yl)amino)acetyl)-1H-pyrrole-3-carboxamide]			< 0.05	> 30	
